Data reported in patent publication US6458808B1, “Pharmaceutical composition for the treatment of cognitive cerebrovascular disease” (Osmotica Corp., priority 2000, dated 2002).

Experiments:
[1] = system: patients having either mild or very mild cognitive deterioration; experiment: Double-blind 16-week clinical trial (CDR, Barthel's, Folstein's tests, Global Clinical Impression); format: in vivo, human; details: for Global Clinic Impression: after 16-week treatment, code 1 highly worsened, 4 unchanged, 5 slightly improved, 6 improved, 7 highly improved; for BARTHEL's test, final mark / CDR test, final mark / FOLSTEIN's test, final mark: group average after 16-week treatment, twice a day; for FOLSTEIN's test, final mark: higher mark = favorable; for BARTHEL's test, initial mark / FOLSTEIN's test, initial mark / CDR test, initial mark: group average at baseline, before 16-week treatment; for CDR test, initial mark: twice a day oral
Excerpt: Seventy nine patients having either mild or very mild cognitive deterioration with the following inclusion criterion:
Antecedents of ischaemic cerebrovascular pathology with symptoms or only with expression in brain computerized tomography (silent infarct). In case of focal or acute multimodal symptoms, at least a three-month period should elapse since symptoms evidence before being included in the tests.
Severity of cognitive deterioration was of the very mild or mild type CDR scale 0,5 and 1 (Clinical Dementia Rating).
Patients were selected from the Neurology area of four different hospitals. In each center a randomization list for parallel groups was established. Tablets in the three groups had the same aspect so as to preserve the double-blind characteristic of the study.
For diagnosis of cognitive deterioration and its association to ischaemic cerebrovascular disorders the criteria proposed in 1992 by the California University, USA, were used, in both their probable and possible forms.
The degree of severity of the cognitive disorder is limited to a borderline, mild condition, according to CDR scale in its points 0.5 and 1. A Hamilton test is carried out in order to detect a depressive condition, which shall contribute to the differential diagnosis of a pseudo dementia.
The Barthel index was used for evaluation of everyday life.
During the initial period a washing in medicine intake was made, in the weeks −4 to 0, the latter being the baseline for those drugs considered to be vasoactive or nootropic.
The observation period lasted 16 weeks, so patients were randomized in three groups which received as double-blind treatment:
Idebenone 45 mg, twice a day.
Nimodipine 30 mg, twice a day.
Idebenone 45 mg+Nimodipine 30 mg, twice a day.
Therapeutic efficacy criteria were based on the results of Folstein's, CDR and Barthel's scales and Global Clinical Impression (GCI). In order to evaluate therapeutic efficacy between the group receiving the combined dosage and the groups receiving the idebenone or nimodipine alone, a statistically significant improvement in one of the following criteria should exist: […]

[2] = oral, multiple doses of 45 or 100 mg, healthy volunteers; cited from earlier work
[3] = in vivo; cited from earlier work

| SMILES | Global Clinic Impression [1] | BARTHEL's test, final mark [1] | CDR test, final mark [1] | FOLSTEIN's test, final mark [1] | BARTHEL's test, initial mark [1] | FOLSTEIN's test, initial mark [1] | CDR test, initial mark [1] | accumulation after repeated doses [2] | delivery to tissues [3] |
| --- | --- | --- | --- | --- | --- | --- | --- | --- | --- |
| COC1=C(OC)C(=O)C(CCCCCCCCCCO)=C(C)C1=O [Group A, 6-(10-hydroxydecil)-2,3-dimethoxy-5-methyl-1,4-benzoquinone] | 5.0 | 87.6 | 0.64 | 24.8 | 87.2 | 22.8 | 0.68 | Accumulation does not occur | widely delivered to different tissues, including the brain |
| COCCOC(=O)C1=C(C)NC(C)=C(C(=O)OC(C)C)C1c1cccc([N+](=O)[O-])c1 (stereo not shown) [Group B, 1,4-dyhidro-5-(isopropoxycarbonyl)-2,6-dimethyl-4-(3-nitrophenyl)-3-pyridine-carboxylate of 2-methoxyethyl] | 4.9 | 81.1 | 0.63 | 23.9 | 80.7 | 22.5 | 0.67 | – | – |
